# According to US9713606B2, “Methods for treating pulmonary emphysema using substituted 2-Aza-bicyclo[2.2.1]heptane-3-carboxylic acid (benzyl-cyano-methyl)-amides inhibitors of cathepsin C” (Boehringer Ingelheim International GmbH, priority 2013, dated 2017):
# Where two headings read alike, the source gives them in different places.
# What was measured:
# [1] = Determination of metabolic stability with human liver microsomes; type: in vitro ADME; settings: pooled human liver microsomes, 1 mg/ml protein, 1 μM test compound, 37° C.; for half-life at 1 μM: pH 7.6, read-out: In vitro stability in human liver microsome incubations t½
# Text: Determination of Metabolic Stability with Human Liver Microsomes
# [2] = tested on: neutrophil elastase activity in U937 cells; assay: Determination of neutrophil elastase activity in U937 cytosolic lysate preparation after incubation with test compound; type: cell-based, human
# Method: Determination of Neutrophil Elastase Activity in U937 Cytosolic Lysate Preparation after Incubation with Test Compound Materials:
# Optiplate 384F were purchased from PerkinElmer (Prod. No. #6007270). 24 well Nunclon cell culture plates (No. 142475) and 96 well plates (No. 267245) were from Nunc. Dimethylsulfoxid (DMSO) was from Sigma (Prod. No. D8418). Nonidet-P40 (NP40) was from USBiological (Prod. No. N3500)
# Substrate, specific for Neutrophil elastase, was from Bachem (MeOSuc-Ala-Ala-Pro-Val-AMC; Prod. No. I-1270).
# Human neutrophil elastase was from Calbiochem (Prod. No. 324681)
# Tris-buffer (100 mM Tris; 1M NaCL; pH 7.5)
# Tris-buffer+HSA 0.1%; Human Serum Albumin from Calbiochem (Cat#. 126658)
# Serine-protease buffer (20 mM Tris; 100 mM NaCL; pH 7.5)+0.1% HSA
# Serine protease lysis buffer: 20 mM Tris-HCL; 100 mM NaCl pH 7.5; +0.2% Nonidet-P40;
# PBS: phosphate buffered saline, without Ca and Mg, from Gibco
# U937 from ECACC (Cat. No. 85011440) cultured in suspension at 37° C. and 5% CO2.
# Cell density: 0.2-1 Mio. Cells/ml.
# Medium: RPMI1640 GlutaMAX (No. 61870) with 10% FCS from Gibco
# Cell Seeding and Treatment:
# Compounds in 100% DMSO were diluted in Medium (-FCS) with 10% DMSO and further diluted according to the experiment planned.
# 20 μl of the compound solution was transferred in the respective wells of the 24 well plate and diluted with 2 ml cell suspension/well containing 1'10^5 cells/ml (final concentration of DMSO=0.1%). Compound dilution factor=100 […]
# Frozen lysates were thawn at 37° C. for 10 minutes and stored on ice. Protein content was determined with Bradford protein assay. […]
# The increase in fluorescence (Ex360 nm/Em 460 nm) is determined over 30 minutes with a Molecular Device Spectramax M5 Fluorescence Reader. […] The amount of neutrophil elastase (ng/ml) is calculated using the standard curve and the Spectramax software. […] Percent inhibition in the compound-treated lysate samples is calculated relative to the DMSO-treated control-sample (100−(compound-sample*100)/control-sample)
# […] is calculated using Graphpad Prism; nonlinear fitting (log(inhibitor) vs. response—Variable slope).
# [3] = biological target: recombinant human DPPI (Cathepsin C) (Homo sapiens (Human), UniProt P53634); assay: Inhibition of human DPPI (Cathepsin C); type: biochemical; settings: substrate Gly-Arg-AMC
# Chain of recombinant human DPPI (Cathepsin C) (P53634 231-394): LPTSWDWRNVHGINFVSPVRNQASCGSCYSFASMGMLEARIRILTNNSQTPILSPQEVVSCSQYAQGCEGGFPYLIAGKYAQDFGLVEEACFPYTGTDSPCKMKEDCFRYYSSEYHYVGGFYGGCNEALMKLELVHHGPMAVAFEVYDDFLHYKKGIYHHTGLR
# Chain of recombinant human DPPI (Cathepsin C) (P53634 395-463): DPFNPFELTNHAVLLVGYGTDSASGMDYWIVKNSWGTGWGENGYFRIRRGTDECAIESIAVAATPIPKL
# Chain of recombinant human DPPI (Cathepsin C) (P53634 25-134): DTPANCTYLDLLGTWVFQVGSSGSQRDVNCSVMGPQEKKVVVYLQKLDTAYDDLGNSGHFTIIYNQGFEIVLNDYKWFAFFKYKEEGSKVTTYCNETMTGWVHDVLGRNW
# Method: Inhibition of Human DPPI (Cathepsin C)
# Bovine serum albumin (BSA; Prod. No. A3059) and Dithiothreitol (DTT; Prod. No D0632) were from Sigma. […] The DPP1 inhibitor Gly-Phe-DMK was purchased from MP Biomedicals (Prod.-No. 03DK00625). The recombinant human DPPI was purchased from Prozymex. All other materials were of highest grade commercially available.
# The following buffers were used: MES buffer: 25 mM MES, 50 mM NaCl, 5 mM DTT, adjusted to pH 6.0, containing 0.1% BSA; TAGZyme Buffer: 20 mM NaH2PO4, 150 mM NaCl adjusted to pH 6.0 with HCl
# Then, 5 μL of substrate in MES buffer (final concentration 50 μM) were added. The microtiter plates were then incubated at room temperature for […] Then, the reaction was stopped by adding 10 μL of Gly-Phe-DMK in MES-buffer (final concentration 1 μM).
# The analysis of the data was performed by calculating the percentage of fluorescence in the presence of test compound in comparison to the fluorescence of the vehicle control after subtracting the background fluorescence using the following formula: (RFU(sample)−RFU(background))*100/(RFU(control)−RFU(background))
# Data from these calculations were used to generate IC50 values for inhibition of DPPI, respectively.
# [4] = biological target: recombinant human Cathepsin K (Homo sapiens (Human), UniProt P43235); assay: Inhibition of human Cathepsin K; type: biochemical; settings: substrate Z-Gly-Pro-Arg-AMC
# Chain of recombinant human Cathepsin K (P43235 115-329): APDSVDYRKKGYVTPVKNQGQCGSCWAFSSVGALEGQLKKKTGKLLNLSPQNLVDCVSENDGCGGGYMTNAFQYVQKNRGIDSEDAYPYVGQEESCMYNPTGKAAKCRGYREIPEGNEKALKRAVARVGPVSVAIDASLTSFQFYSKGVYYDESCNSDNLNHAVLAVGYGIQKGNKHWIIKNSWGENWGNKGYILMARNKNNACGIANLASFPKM
# Text: Inhibition of Human Cathepsin K
# Materials: Microtiterplates (Optiplate-384 F were purchased from PerkinElmer (Prod. No. 6007270). The substrate Z-Gly-Pro-Arg-AMC was from Biomol (Prod.-No. P-142). L-Cysteine (Prod. No. 168149) was from Sigma. Sodium acetate was from Merck (Prod.-No. 6268.0250), EDTA was from Fluka (Prod.-No. 03680). The inhibitor E-64 was purchased from Sigma (Prod.-No. E3132). The recombinant human Cathepsin K proenzyme was purchased from Biomol (Prod. No. SE-367). All other materials were of highest grade commercially available. […]
# 5 μL test compound (final concentration 0.1 nM to 100 μM) in aqua bidest (containing 4% DMSO, final DMSO concentration 1%) were mixed with 10 uL of Cathepsin K in assay buffer (final concentration 2 ng/μL) and incubated for 10 min. […] The fluorescence in the wells was determined using a Molecular Devices SpectraMax M5 Fluorescence Reader (Ex 360 nm, Em 460 nm).
# Each assay microtiter plate contains wells with vehicle controls (1% DMSO in bidest) as reference for non-inhibited enzyme activity (100% Ctl; high values) and wells with inhibitor (E64 in bidest+1% DMSO, final concentration 1 μM) as controls for background fluorescence (0% Ctl; low values). […]
# [5] = Homo sapiens, U-937, read-out: Reduction of NE-activity in U937 cells IC50
smiles,measurement,setting,value
N#C[C@H](Cc1ccc(N2CCCN3CCCC3C2)cc1F)NC(=O)[C@H]1N[C@@H]2CC[C@H]1C2 (stereo partly drawn) [Example 271],In vitro stability in human liver microsome incubations t½,[1],2.17 h
N#C[C@H](Cc1ccc(N2CC3CCN(C4CCOC4)C3C2)cc1F)NC(=O)[C@H]1N[C@@H]2CC[C@H]1C2 (stereo partly drawn) [Example 348],In vitro stability in human liver microsome incubations t½,[1],2.17 h
N#C[C@H](Cc1ccc(-c2ccc(S(=O)(=O)N3CCOCC3)cc2)cc1F)NC(=O)[C@H]1N[C@@H]2CC[C@H]1C2 [Example 217],IC50,[2]; read-out: Reduction of NE-activity in U937 cells IC50,7.5 nM
CN1C(=O)Cc2ccc(-c3cc(F)c(C[C@@H](C#N)NC(=O)[C@H]4N[C@@H]5CC[C@H]4C5)cc3F)cc21 [Example 31],half-life at 1 μM,[1],1.5 h
CS(=O)(=O)c1ccc(-c2ccc(C[C@@H](C#N)NC(=O)[C@H]3N[C@@H]4CC[C@H]3C4)c(F)c2)cc1OCC(F)F [Example 252],In vitro stability in human liver microsome incubations t½,[1],2.17 h
CN1CCC(N2C(=O)Cc3ccc(-c4ccc(C[C@@H](C#N)NC(=O)[C@H]5N[C@@H]6CC[C@H]5C6)c(F)c4)cc32)CC1 [Example 346],In vitro stability in human liver microsome incubations t½,[1],>2.17 h
CN1C(=O)Cc2ccc(-c3ccc(CC(C#N)NC(=O)[C@H]4N[C@@H]5CC[C@H]4C5)c(F)c3)cc21 (stereo partly drawn) [Example 15],In vitro stability in human liver microsome incubations t½,[1],2.17 h
N#CC(Cc1ccc(-c2cnn(-c3ccccc3)c2)cc1F)NC(=O)[C@H]1N[C@@H]2CC[C@H]1C2 (stereo partly drawn) [Example 78],In vitro stability in human liver microsome incubations t½,[1],2.17 h
CN1CCCN(S(=O)(=O)c2ccc(-c3ccc(C[C@@H](C#N)NC(=O)[C@H]4N[C@@H]5CC[C@H]4C5)c(F)c3)cc2)CC1 [Example 340],IC50,[2]; [5],0.8 nM
N#C[C@H](Cc1ccc(N2CCN(CC3CCOC3)CC2)cc1F)NC(=O)[C@H]1N[C@@H]2CC[C@H]1C2 (stereo partly drawn) [Example 154],IC50,[3],13.5 nM
same,IC50,[2]; [5],4.6 nM
same,IC50,[4],4600 nM
same,half-life at 1 μM,[1],> 2.17 h
CC(C)c1cc(-c2ccc(C[C@@H](C#N)NC(=O)[C@H]3N[C@@H]4CC[C@H]3C4)c(F)c2)ccc1[S+](C)[O-] (stereo partly drawn) [Example 251],IC50,[3],11.5 nM
CS(=O)(=O)c1cc(OCC(F)(F)F)cc(-c2ccc(C[C@@H](C#N)NC(=O)[C@H]3N[C@@H]4CC[C@H]3C4)c(F)c2)c1 [Example 276],In vitro stability in human liver microsome incubations t½,[1],2.17 h
